Measurements published in the supplement of paper PMC10883282.

What was measured:
Test in all cases: relative viability vs DMSO control (72 h) (fraction); higher = more viable cells
G401 = system: G401
Procedure, shortened: (§1)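 Plates held 72 h at 37 °C and 5% CO2 contained sarcoma cell lines seeded in 384-well format to reach 80–90% confluence, plus 2.5 µl of serially diluted compound added after 24 h. Source plate concentrations ran from 10 mM to 0.0002 mM, with 0.1% DMSO as vehicle and a 5 µM positive control. Percent growth from ATPLite readings, averaged over up to triplicate wells, gave relative viability. Values were rescaled with 1 as full and 0 as none.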

SK-ES-1 = system: SK-ES-1
Procedure, shortened: as §1

SW1353 = system: SW1353
Procedure, shortened: as §1

RD-ES = system: RD-ES
Procedure, shortened: as §1

SW872 = system: SW872
Procedure, shortened: as §1

RD = system: RD
Procedure, shortened: as §1

SK-LMS-1 = system: SK-LMS-1
Procedure, shortened: as §1

VA-ES-BJ = system: VA-ES-BJ
Procedure, shortened: as §1

SW684 = system: SW684
Procedure, shortened: as §1

MES-SA = system: MES-SA
Procedure, shortened: as §1

KHOS-NP = system: KHOS-NP
Procedure, shortened: as §1

HT1080 = system: HT1080
Procedure, shortened: as §1

COC(=O)[C@@]1(O)C[C@H]2O[C@]1(C)n1c3ccccc3c3c4c(c5c6ccccc6n2c5c31)C(=O)NC4 [K-252a]
Conditions | relative viability
G401, 0.00017 µM | 1.05
G401, 0.00051 µM | 1.06
G401, 0.00152 µM | 1.03
G401, 0.00457 µM | 1.031
G401, 0.01372 µM | 1.04
G401, 0.04115 µM | 0.977
G401, 0.1235 µM | 1
G401, 0.3704 µM | 0.893
G401, 1.111 µM | 0.0854
G401, 3.333 µM | 0.0149
G401, 10 µM | 0.00607
HT1080, 0.00017 µM | 1.09
HT1080, 0.00051 µM | 1.09
HT1080, 0.00152 µM | 1.09
HT1080, 0.00457 µM | 1.09
HT1080, 0.01372 µM | 1.16
HT1080, 0.04115 µM | 1.13
HT1080, 0.1235 µM | 1.05
HT1080, 0.3704 µM | 1.13
HT1080, 1.111 µM | 0.683
HT1080, 3.333 µM | 0.105
HT1080, 10 µM | 0.0141
KHOS-NP, 0.00017 µM | 1.09
KHOS-NP, 0.00051 µM | 1.101
KHOS-NP, 0.00152 µM | 1.1
KHOS-NP, 0.00457 µM | 1.08
KHOS-NP, 0.01372 µM | 1.1
KHOS-NP, 0.04115 µM | 1.071
KHOS-NP, 0.1235 µM | 0.961
KHOS-NP, 0.3704 µM | 0.927
KHOS-NP, 1.111 µM | 0.286
KHOS-NP, 3.333 µM | 0.154
KHOS-NP, 10 µM | 0.0717
MES-SA, 0.00017 µM | 0.97
MES-SA, 0.00051 µM | 0.953
MES-SA, 0.00152 µM | 0.956
MES-SA, 0.00457 µM | 0.916
MES-SA, 0.01372 µM | 0.827
MES-SA, 0.04115 µM | 0.618
MES-SA, 0.1235 µM | 0.596
MES-SA, 0.3704 µM | 0.407
MES-SA, 1.111 µM | 0.324
MES-SA, 3.333 µM | 0.0952
MES-SA, 10 µM | 0.00197
RD, 0.00017 µM | 1.07
RD, 0.00051 µM | 1.08
RD, 0.00152 µM | 1.11
RD, 0.00457 µM | 1.12
RD, 0.01372 µM | 1.13
RD, 0.04115 µM | 1.13
RD, 0.1235 µM | 1.09
RD, 0.3704 µM | 1
RD, 1.111 µM | 0.507
RD, 3.333 µM | 0.278
RD, 10 µM | 0.0929
RD-ES, 0.00017 µM | 0.991
RD-ES, 0.00051 µM | 1.02
RD-ES, 0.00152 µM | 1.01
RD-ES, 0.00457 µM | 1.02
RD-ES, 0.01372 µM | 0.979
RD-ES, 0.04115 µM | 0.797
RD-ES, 0.1235 µM | 0.578
RD-ES, 0.3704 µM | 0.488
RD-ES, 1.111 µM | 0.175
RD-ES, 3.333 µM | 0.0819
RD-ES, 10 µM | 0.0303
SK-ES-1, 0.00017 µM | 1.06
SK-ES-1, 0.00051 µM | 1.05
SK-ES-1, 0.00152 µM | 1.02
SK-ES-1, 0.00457 µM | 1.02
SK-ES-1, 0.01372 µM | 0.778
SK-ES-1, 0.04115 µM | 0.508
SK-ES-1, 0.1235 µM | 0.398
SK-ES-1, 0.3704 µM | 0.256
SK-ES-1, 1.111 µM | 0.126
SK-ES-1, 3.333 µM | 0.115
SK-ES-1, 10 µM | 0.114
SK-LMS-1, 0.00017 µM | 1.03
SK-LMS-1, 0.00051 µM | 1.01
SK-LMS-1, 0.00152 µM | 1.04
SK-LMS-1, 0.00457 µM | 1.044
SK-LMS-1, 0.01372 µM | 0.9
SK-LMS-1, 0.04115 µM | 0.719
SK-LMS-1, 0.1235 µM | 0.664
SK-LMS-1, 0.3704 µM | 0.619
SK-LMS-1, 1.111 µM | 0.339
SK-LMS-1, 3.333 µM | 0.212
SK-LMS-1, 10 µM | 0.0825
SW684, 0.00017 µM | 1.12
SW684, 0.00051 µM | 1.176
SW684, 0.00152 µM | 1.14
SW684, 0.00457 µM | 1.18
SW684, 0.01372 µM | 1.2
SW684, 0.04115 µM | 1.14
SW684, 0.1235 µM | 1.05
SW684, 0.3704 µM | 0.906
SW684, 1.111 µM | 0.512
SW684, 3.333 µM | 0.0655
SW684, 10 µM | 0.0141
SW872, 0.00017 µM | 1.09
SW872, 0.00051 µM | 1.06
SW872, 0.00152 µM | 1.1
SW872, 0.00457 µM | 1.05
SW872, 0.01372 µM | 0.985
SW872, 0.04115 µM | 0.843
SW872, 0.1235 µM | 0.759
SW872, 0.3704 µM | 0.589
SW872, 1.111 µM | 0.394
SW872, 3.333 µM | 0.0892
SW872, 10 µM | 0.0117
SW1353, 0.00017 µM | 1.037
SW1353, 0.00051 µM | 1.033
SW1353, 0.00152 µM | 1.03
SW1353, 0.00457 µM | 1
SW1353, 0.01372 µM | 0.964
SW1353, 0.04115 µM | 0.892
SW1353, 0.1235 µM | 0.814
SW1353, 0.3704 µM | 0.772
SW1353, 1.111 µM | 0.528
SW1353, 3.333 µM | 0.294
SW1353, 10 µM | 0.0167
VA-ES-BJ, 0.00017 µM | 1.09
VA-ES-BJ, 0.00051 µM | 1.07
VA-ES-BJ, 0.00152 µM | 1.09
VA-ES-BJ, 0.00457 µM | 1.07
VA-ES-BJ, 0.01372 µM | 1.05
VA-ES-BJ, 0.04115 µM | 0.922
VA-ES-BJ, 0.1235 µM | 0.773
VA-ES-BJ, 0.3704 µM | 0.67
VA-ES-BJ, 1.111 µM | 0.381
VA-ES-BJ, 3.333 µM | -0.0139
VA-ES-BJ, 10 µM | -0.0189
